# Results as given in PubChem BioAssay (NCI).
#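 Exposure lasted 48 hours, with cells grown in 96-well plates and compounds tested at five concentrations. At the GI50, growth is halved. Definition used: TGI = concentration required for complete inhibition of growth.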
# Tests used:
# Experiment in all cases: NCI-60 cell line screen, 48 h
# [1] = tested on: RPMI-8226 leukemia
# [2] = tested on: IGROV1 ovarian
# [3] = tested on: TK-10 renal
# [4] = tested on: CAKI-1 renal
# [5] = tested on: MDA-MB-231 breast
# [6] = tested on: U251 CNS
# [7] = tested on: COLO 205 colon
# [8] = tested on: RXF 393 renal
# [9] = tested on: T-47D breast
# [10] = tested on: UACC-62 melanoma
# [11] = tested on: NCI-H226 lung
# [12] = tested on: SNB-75 CNS
# [13] = tested on: NCI-H522 lung
# [14] = tested on: SK-MEL-5 melanoma
# [15] = tested on: MOLT-4 leukemia
# [16] = tested on: NCI/ADR-RES ovarian
# [17] = tested on: HCT-116 colon
# [18] = tested on: K-562 leukemia
# [19] = tested on: NCI-H460 lung
# [20] = tested on: PC-3 prostate
# [21] = tested on: KM12 colon
# [22] = tested on: SW-620 colon
# [23] = tested on: SK-MEL-28 melanoma
# [24] = tested on: SN12C renal
# [25] = tested on: SK-MEL-2 melanoma
# [26] = tested on: UO-31 renal
# [27] = tested on: UACC-257 melanoma
# [28] = tested on: SNB-19 CNS
# [29] = tested on: NCI-H23 lung
# [30] = tested on: SF-295 CNS
# [31] = tested on: OVCAR-8 ovarian
# [32] = tested on: HCT-15 colon
# [33] = tested on: HS 578T breast
# [34] = tested on: A498 renal
# [35] = tested on: SF-539 CNS
# [36] = tested on: MDA-MB-435
# [37] = tested on: SK-OV-3 ovarian
# [38] = tested on: ACHN renal
# [39] = tested on: HOP-92 NSCLC
# [40] = tested on: OVCAR-4 ovarian
# [41] = tested on: CCRF-CEM leukemia
# [42] = tested on: MCF7 breast
# [43] = tested on: MALME-3M melanoma
# [44] = tested on: SR leukemia
# [45] = tested on: HOP-62 NSCLC
# [46] = tested on: SF-268 CNS
# [47] = tested on: LOX IMVI melanoma
# [48] = tested on: HCC-2998 colon
# [49] = tested on: M14 melanoma
# [50] = tested on: A549 NSCLC
# [51] = tested on: HT29 colon
# [52] = tested on: BT-549 breast
# [53] = tested on: DU-145 prostate
# [54] = tested on: HL-60(TB) leukemia
# [55] = tested on: OVCAR-5 ovarian
smiles,measurement,setting,value
O=C(Nc1cccc(-n2cc(-c3ccncc3)c(-c3ccc(O)c(Cl)c3)n2)c1)c1cccc(C(F)(F)F)c1,GI50,[1],2.04 µM
same,TGI,[1],10.6 µM
same,GI50,[2],9.88 µM
same,TGI,[2],> 100 µM
same,GI50,[3],7.18 µM
same,TGI,[3],> 100 µM
same,GI50,[4],2.83 µM
same,TGI,[4],> 100 µM
same,GI50,[5],1.43 µM
same,TGI,[5],5.3 µM
same,GI50,[6],2.14 µM
same,TGI,[6],> 100 µM
same,GI50,[7],13 µM
same,TGI,[7],72.9 µM
same,GI50,[8],1.1 µM
same,TGI,[8],5.64 µM
same,GI50,[9],3 µM
same,TGI,[9],> 100 µM
same,GI50,[10],6.52 µM
same,TGI,[10],> 100 µM
same,GI50,[11],7.17 µM
same,TGI,[11],> 100 µM
same,GI50,[12],2.07 µM
same,TGI,[12],> 100 µM
same,GI50,[13],2.49 µM
same,TGI,[13],> 100 µM
same,GI50,[14],2.38 µM
same,TGI,[14],16.2 µM
same,GI50,[15],2.96 µM
same,TGI,[15],> 100 µM
same,GI50,[16],4.09 µM
same,TGI,[16],> 100 µM
same,GI50,[17],3.24 µM
same,TGI,[17],> 100 µM
same,GI50,[18],2.41 µM
same,TGI,[18],> 100 µM
same,GI50,[19],3.42 µM
same,TGI,[19],> 100 µM
same,GI50,[20],3.62 µM
same,TGI,[20],> 100 µM
same,GI50,[21],2.67 µM
same,TGI,[21],64.3 µM
same,GI50,[22],5.81 µM
same,TGI,[22],> 100 µM
same,GI50,[23],4.63 µM
same,TGI,[23],> 100 µM
same,GI50,[24],6.44 µM
same,TGI,[24],> 100 µM
same,GI50,[25],4.54 µM
same,TGI,[25],38.1 µM
same,GI50,[26],4.29 µM
same,TGI,[26],> 100 µM
same,GI50,[27],8.15 µM
same,TGI,[27],> 100 µM
same,GI50,[28],9.36 µM
same,TGI,[28],> 100 µM
same,GI50,[29],4.38 µM
same,TGI,[29],> 100 µM
same,GI50,[30],2.98 µM
same,TGI,[30],> 100 µM
same,GI50,[31],3.89 µM
same,TGI,[31],> 100 µM
same,GI50,[32],1.98 µM
same,TGI,[32],> 100 µM
same,GI50,[33],2.26 µM
same,TGI,[33],> 100 µM
same,GI50,[34],3.44 µM
same,TGI,[34],> 100 µM
same,GI50,[35],3.27 µM
same,TGI,[35],> 100 µM
same,GI50,[36],3.57 µM
same,TGI,[36],> 100 µM
same,GI50,[37],99.1 µM
same,TGI,[37],> 100 µM
same,GI50,[38],3.71 µM
same,TGI,[38],> 100 µM
same,GI50,[39],0.434 µM
same,TGI,[39],4.11 µM
same,GI50,[40],5.33 µM
same,TGI,[40],> 100 µM
same,GI50,[41],1.88 µM
same,TGI,[41],> 100 µM
same,GI50,[42],2.97 µM
same,TGI,[42],> 100 µM
same,GI50,[43],5.59 µM
same,TGI,[43],> 100 µM
same,GI50,[44],1.6 µM
same,TGI,[44],8.1 µM
same,GI50,[45],8.86 µM
same,TGI,[45],> 100 µM
same,GI50,[46],7.11 µM
same,TGI,[46],> 100 µM
same,GI50,[47],2.35 µM
same,TGI,[47],> 100 µM
same,GI50,[48],4.37 µM
same,TGI,[48],> 100 µM
same,GI50,[49],2.72 µM
same,TGI,[49],> 100 µM
same,GI50,[50],2.5 µM
same,TGI,[50],> 100 µM
same,GI50,[51],5.18 µM
same,TGI,[51],> 100 µM
same,GI50,[52],3.34 µM
same,TGI,[52],> 100 µM
same,GI50,[53],6.52 µM
same,TGI,[53],> 100 µM
same,GI50,[54],2.68 µM
same,TGI,[54],6.76 µM
same,GI50,[55],23.7 µM
same,TGI,[55],> 100 µM
